Where “and” joins values, the source holds several entries; their conditions need not be identical. Equal entries are not always repeated. Where two headings read alike, the source gives them in different places.
Test system: C. elegans
[1] = Table S2, C. elegans SS assay, 110 μM, 0 h, averages of 4 data points
[2] = Table S2, C. elegans SS assay, 110 μM, 24 h, averages of 4 data points

## CC1=C(CO)C(C)(C)CCC1 [β-Cyclogeraniol]
[1]
  Percentage of motility inhibition 0 h: 15%
[2]
  Percentage of motility inhibition 24 h: 48%

## CC(=O)[C@H]1CC[C@H]2[C@@H]3CC=C4C[C@@H](O)CC[C@]4(C)[C@H]3CC[C@]12C [Pregnenolone]
[1]
  Percentage of motility inhibition 0 h: 11%
[2]
  Percentage of motility inhibition 24 h: 4%

## O=C(Nc1ccccc1F)N[C@H]1N=C(c2ccccc2)c2ccccc2NC1=O (racemic) [RSV604 (racemate)]
[1]
  Percentage of motility inhibition 0 h: 23%
[2]
  Percentage of motility inhibition 24 h: 13%

## CC1=C2[C@@H](OC1=O)[C@H](O)[C@]13[C@H]4C[C@@H](C(C)(C)C)[C@]15[C@@H](OC(=O)[C@@H]5O)O[C@@]23C(=O)O4 [Ginkgolide K]
[1]
  Percentage of motility inhibition 0 h: 0%
[2]
  Percentage of motility inhibition 24 h: 2%

## C/C=C1/[C@H](O[C@@H]2O[C@H](CO)[C@@H](O)[C@H](O)[C@H]2O)OC=C(C(=O)OC)[C@H]1CC(=O)OC[C@H]1O[C@@H](OCCc2ccc(OC(=O)C[C@@H]3C(C(=O)OC)=CO[C@@H](O[C@@H]4O[C@H](CO)[C@@H](O)[C@H](O)[C@H]4O)/C3=C/C)cc2)[C@H](O)[C@@H](O)[C@@H]1O [GL3]
[1]
  Percentage of motility inhibition 0 h: 0%
[2]
  Percentage of motility inhibition 24 h: 18%

## COC(=O)N[C@H](C(=O)N1CC2(CC2)C[C@H]1c1nc(-c2ccc3c(c2)C(F)(F)c2cc(-c4ccc5[nH]c([C@@H]6[C@H]7CC[C@H](C7)N6C(=O)[C@@H](NC(=O)OC)C(C)C)nc5c4)ccc2-3)c[nH]1)C(C)C [Ledipasvir (acetone)]
[1]
  Percentage of motility inhibition 0 h: 14%
[2]
  Percentage of motility inhibition 24 h: 4%

## CCC1=N[C@H]2C[C@@]3(C(=O)N(OC)c4ccccc43)[C@H]3CC1[C@@H]2CO3 [Humantenmine]
[1]
  Percentage of motility inhibition 0 h: 8%
[2]
  Percentage of motility inhibition 24 h: 12%

## NC(=O)c1ccc[n+]([C@@H]2O[C@H](CO)[C@@H](O)[C@H]2O)c1.[Cl-] [Nicotinamide riboside (chloride)]
[1]
  Percentage of motility inhibition 0 h: 15%
[2]
  Percentage of motility inhibition 24 h: 0%

## O=C(/C=C/c1ccc(O)c(O)c1)c1ccc(O)c(O)c1O [Okanin]
[1]
  Percentage of motility inhibition 0 h: 9%
[2]
  Percentage of motility inhibition 24 h: 31%

## CC(C)(O)[C@@H]1CC[C@](C)([C@H]2[C@@H](O)C[C@@]3(C)[C@@H]4C[C@H](O[C@@H]5O[C@H](CO)[C@@H](O)[C@H](O)[C@H]5O)[C@H]5C(C)(C)[C@@H](O[C@@H]6OC[C@@H](O)[C@H](O)[C@H]6O[C@@H]6O[C@H](CO)[C@@H](O)[C@H](O)[C@H]6O)CC[C@@]56C[C@@]46CC[C@]23C)O1 [Astragaloside VI]
[1]
  Percentage of motility inhibition 0 h: 3%
[2]
  Percentage of motility inhibition 24 h: 0%

## O.O=C(O)CC(O)(CC(=O)O)C(=O)O [Citric acid (monohydrate)]
[1]
  Percentage of motility inhibition 0 h: 63%
[2]
  Percentage of motility inhibition 24 h: 32%

## CCCCCCCCCCCCCCCCCCCCCCO [1-Docosanol]
[1]
  Percentage of motility inhibition 0 h: 7%
[2]
  Percentage of motility inhibition 24 h: 8%

## CN(C)[C@@H]1C(=O)C(C(N)=O)=C(O)[C@@]2(O)C(=O)C3=C(O)c4c(O)ccc(Cl)c4[C@@](C)(O)[C@H]3C[C@@H]12.Cl [Chlortetracycline (hydrochloride)]
[1]
  Percentage of motility inhibition 0 h: 24%
[2]
  Percentage of motility inhibition 24 h: 5%

## O.O=C([O-])CC(O)(CC(=O)[O-])C(=O)[O-].[K+].[K+].[K+] [Citric acid (tripotassium hydrate)]
[1]
  Percentage of motility inhibition 0 h: 28%
[2]
  Percentage of motility inhibition 24 h: 4%

## Tubeimoside I
[1]
  Percentage of motility inhibition 0 h: 3%
[2]
  Percentage of motility inhibition 24 h: 0%

## CCc1c2c(nc3ccccc13)-c1cc3c(c(=O)n1C2)COC(=O)[C@]3(O)CC [7‐Ethylcamptothecin]
[1]
  Percentage of motility inhibition 0 h: 11%
[2]
  Percentage of motility inhibition 24 h: 22%

## Hydroxysafflor yellow A
110 µM
  Percentage of motility inhibition 0 h: 36%
  Percentage of motility inhibition 24 h: 12%

## CC1(C)CC[C@]23CO[C@@]4(C=C[C@@H]5[C@@]6(C)CC[C@H](O)[C@@](C)(CO)[C@@H]6CC[C@@]5(C)[C@]4(C)C[C@@H]2O)[C@@H]3C1 [Saikogenin F]
[1]
  Percentage of motility inhibition 0 h: 53%
[2]
  Percentage of motility inhibition 24 h: 46%

## CC(C)=CCc1cc(C(=O)/C=C/c2ccc(O)cc2)c(O)cc1O [Bavachalcone]
[1]
  Percentage of motility inhibition 0 h: 39%
[2]
  Percentage of motility inhibition 24 h: 18%

## C=C(CCC=C(C)C)[C@@H]1CC=C(C)CC1 [β-Bisabolene]
[1]
  Percentage of motility inhibition 0 h: 8%
[2]
  Percentage of motility inhibition 24 h: 57%

## O=c1cc(-c2ccc(O)cc2)oc2cccc(O)c12 [4',5‐Dihydroxyflavone]
[1]
  Percentage of motility inhibition 0 h: 39%
[2]
  Percentage of motility inhibition 24 h: 6%

## C[C@@H]1O[C@@H](O[C@H]2[C@H](O[C@H]3CC[C@@]4(C)[C@@H](CC[C@]5(C)[C@@H]4CC=C4[C@@H]6CC(C)(C)CC[C@]6(C(=O)O[C@@H]6O[C@H](CO[C@@H]7O[C@H](CO)[C@@H](O)[C@H](O)[C@H]7O)[C@@H](O)[C@H](O)[C@H]6O)CC[C@]45C)[C@]3(C)CO)OC[C@H](O)[C@@H]2O)[C@H](O)[C@H](O[C@@H]2O[C@H](CO)[C@@H](O)[C@H](O)[C@H]2O)[C@H]1O [Macranthoidin A]
[1]
  Percentage of motility inhibition 0 h: 1%
[2]
  Percentage of motility inhibition 24 h: 1%

## Notoginsenoside Fe
[1]
  Percentage of motility inhibition 0 h: 0%
[2]
  Percentage of motility inhibition 24 h: 0%

## Br.O=C(CC1NCCCC1O)Cn1cnc2cc(Br)c(Cl)cc2c1=O (centres unmarked) [Halofuginone (hydrobromide)]
[1]
  Percentage of motility inhibition 0 h: 4%
[2]
  Percentage of motility inhibition 24 h: 0%

## C=C1c2cccc(O)c2C(=O)C2=C(O)[C@]3(O)C(=O)C(C(N)=O)=C(O)[C@@H](N(C)C)[C@@H]3[C@@H](O)[C@H]12.Cl [Methacycline (hydrochloride)]
[1]
  Percentage of motility inhibition 0 h: 17%
[2]
  Percentage of motility inhibition 24 h: 20%

## Cl.Cl.NCCc1c[nH]cn1 [Histamine (dihydrochloride)]
[1]
  Percentage of motility inhibition 0 h: 0%
[2]
  Percentage of motility inhibition 24 h: 3%

## CCN1CCN(C(=O)N[C@@H](C(=O)N[C@@H]2C(=O)N3[C@@H]2SC(C)(C)[C@@H]3C(=O)[O-])c2ccccc2)C(=O)C1=O.[Na+] [Piperacillin (sodium)]
[1]
  Percentage of motility inhibition 0 h: 31%
[2]
  Percentage of motility inhibition 24 h: 2%

## CC1(C)CC(NC(=O)C(=O)Nc2ccc(Br)cc2)CC(C)(C)N1 [NBD‐557]
[1]
  Percentage of motility inhibition 0 h: 22%
[2]
  Percentage of motility inhibition 24 h: 14%

## CC(C)=CCC[C@](C)(O)[C@H]1CC[C@]2(C)[C@@H]1[C@H](O)C[C@@H]1[C@@]3(C)CC[C@H](O)C(C)(C)[C@@H]3[C@@H](O[C@@H]3O[C@H](CO)[C@@H](O)[C@H](O)[C@H]3O[C@@H]3OC[C@@H](O)[C@H](O)[C@H]3O)C[C@]12C [Notoginsenoside R2]
[1]
  Percentage of motility inhibition 0 h: 19%
[2]
  Percentage of motility inhibition 24 h: 9%

## CC[C@@]1(O)C(=O)OCc2c1cc1n(c2=O)Cc2cc3c(CN(C)C)c(O)ccc3nc2-1.Cl [Topotecan (Hydrochloride)]
[1]
  Percentage of motility inhibition 0 h: 5%
[2]
  Percentage of motility inhibition 24 h: 3%

## O=C1C=C2C=C[C@@H]3C[C@@]2(O1)[C@@H]1CCCCN31 [Allosecurinine]
[1]
  Percentage of motility inhibition 0 h: 23%
[2]
  Percentage of motility inhibition 24 h: 29%

## C=C(C)[C@@H]1CC[C@]2(C(=O)O)CC[C@]3(C)[C@H](CC[C@@H]4[C@@]5(C)CCC(=O)C(C)(C)[C@@H]5CC[C@]43C)[C@@H]12 [Betulonic acid]
[1]
  Percentage of motility inhibition 0 h: 24%
[2]
  Percentage of motility inhibition 24 h: 26%

## COc1cc(OC)c(CCC(=O)c2ccc(O)cc2)c(OC)c1 [Loureirin B]
[1]
  Percentage of motility inhibition 0 h: 10%
[2]
  Percentage of motility inhibition 24 h: 0%

## CC(C)C[C@H](NP(=O)([O-])O[C@H]1O[C@H](C)[C@@H](O)[C@H](O)[C@@H]1O)C(=O)N[C@@H](Cc1c[nH]c2ccccc12)C(=O)[O-].[Na+].[Na+] [Phosphoramidon (Disodium)]
[1]
  Percentage of motility inhibition 0 h: 19%
[2]
  Percentage of motility inhibition 24 h: 7%

## COc1cc(C(=O)OCCCCN=C(N)N)cc(OC)c1O.Cl [Leonurine (hydrochloride)]
[1]
  Percentage of motility inhibition 0 h: 0%
[2]
  Percentage of motility inhibition 24 h: 0%

## Ginkgolide B
[1]
  Percentage of motility inhibition 0 h: 4%
[2]
  Percentage of motility inhibition 24 h: 7%

## Nc1ccc2cc3ccc(N)cc3nc2c1.Nc1ccc2cc3ccc(N)cc3nc2c1.O=S(=O)(O)O [Proflavine (hemisulfate)]
[1]
  Percentage of motility inhibition 0 h: 7%
[2]
  Percentage of motility inhibition 24 h: 16%

## N=C(N)c1ccc(OCCCCCOc2ccc(C(=N)N)cc2)cc1.O=S(=O)(O)CCO.O=S(=O)(O)CCO [Pentamidine (isethionate)]
[1]
  Percentage of motility inhibition 0 h: 0%
[2]
  Percentage of motility inhibition 24 h: 0%

## CO[C@@H]1[C@@H](OC(N)=O)[C@@H](O)[C@H](Oc2ccc3c([O-])c(NC(=O)c4ccc(O)c(CC=C(C)C)c4)c(=O)oc3c2C)OC1(C)C.[Na+] [Novobiocin (Sodium)]
[1]
  Percentage of motility inhibition 0 h: 25%
[2]
  Percentage of motility inhibition 24 h: 1%

## CC(=O)OCC1=C(C(=O)[O-])N2C(=O)[C@@H](NC(=O)Cc3cccs3)[C@H]2SC1.[Na+] [Cephalothin (sodium)]
[1]
  Percentage of motility inhibition 0 h: 9%
[2]
  Percentage of motility inhibition 24 h: 11%

## CC1(C)[C@@H](O[C@H]2O[C@H](C(=O)O)[C@@H](O)[C@H](O)[C@H]2O[C@@H]2O[C@H](C(=O)O)[C@@H](O)[C@H](O)[C@H]2O)CC[C@]2(C)[C@H]3C(=O)C=C4[C@@H]5C[C@@](C)(C(=O)O)CC[C@]5(C)CC[C@@]4(C)[C@]3(C)CC[C@@H]12.N.N [Diammonium Glycyrrhizinate]
[2]
  Percentage of motility inhibition 24 h: 4% and 11%

## CC(C)=C[C@@H]1CO[C@]23C[C@@]4(CO2)[C@@H](CC[C@@H]2[C@@]5(C)CC[C@H](O[C@H]6OC[C@H](O)[C@H](O[C@H]7O[C@H](COS(=O)(=O)O)[C@@H](O)[C@H](O)[C@H]7O)[C@H]6O[C@@H]6O[C@@H](CO)[C@H](O)[C@H]6O)C(C)(C)[C@@H]5CC[C@]24C)[C@H]3[C@@]1(C)O [Bacopaside I]
[1]
  Percentage of motility inhibition 0 h: 19%
[2]
  Percentage of motility inhibition 24 h: 0%

## Br.COc1ccc2c3c1O[C@H]1C[C@@H](O)C=C[C@@]31CCN(C)C2 [Galanthamine (hydrobromide)]
[1]
  Percentage of motility inhibition 0 h: 2% and 0%

## Echinocystic acid
[1]
  Percentage of motility inhibition 0 h: 45%
[2]
  Percentage of motility inhibition 24 h: 35%
